Measurements published in patent publication US20100324049A1, “DIARYL KETIMINE DERIVATIVE HAVING ANTAGONISM AGAINST MELANIN-CONCENTRATING HORMONE RECEPTOR” (priority 2007, published 2010).

Each compound was assayed against T1, human MCH-1R (Homo sapiens, UniProt Q99705) (assay: MCH binding inhibition test). Conditions: inhibition of specific [125I]MCH (50 pM) binding; membrane specimen from MCH-1R-expressing CHO-K1 cells; 25° C., 1 hour.
T1 construct: expressed in transfected cells; host or cells: CHO-K1 (American Type Culture Collection), plasmid vector pEF/myc/cyto
T1 sequence (Q99705 whole entry): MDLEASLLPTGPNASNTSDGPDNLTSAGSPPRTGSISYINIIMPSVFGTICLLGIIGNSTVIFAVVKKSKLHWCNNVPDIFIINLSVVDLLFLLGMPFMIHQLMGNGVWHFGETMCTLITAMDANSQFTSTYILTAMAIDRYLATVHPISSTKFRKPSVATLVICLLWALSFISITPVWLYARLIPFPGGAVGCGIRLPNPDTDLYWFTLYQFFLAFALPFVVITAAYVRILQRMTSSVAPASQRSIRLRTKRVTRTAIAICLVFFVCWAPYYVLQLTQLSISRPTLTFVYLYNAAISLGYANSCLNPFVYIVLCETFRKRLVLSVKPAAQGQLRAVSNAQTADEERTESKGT
Excerpt: A cDNA sequence encoding human MCH-1R [FEBS Letters, Vol. 398, 253 (1996); Biochimica et Biophisica Acta, Vol. 1401, 216 (1998)] was cloned into a plasmid vector pEF/myc/cyto (manufactured by In Vitro Gene). The expression plasmid thus obtained was transfected into host cells CHO-K1 (American Type Culture Collection) by using lipofectAMINE PLUS reagent (manufactured by Life Technologies) to thereby give MCH-1R-expressing cells.
A membrane specimen prepared from the MCH-1R-expressing cells was incubated together with a test compound and 50 pM of [^125I]MCH (manufactured by NEN) in an assay buffer (a 50 mM Tris buffer (pH7.4) containing 10 mM of magnesium chloride, 2 mM of ethylenediaminetetracetic acid, 0.01% of bacitracin and 0.2% of bovine serum albumin) at 25° C. for 1 hour, and then filtered through a glass filter GF/C (manufactured by Whatman). After washing the glass filter with a 50 mM Tris buffer (pH7.4) containing 10 mM of magnesium chloride, 2 mM of ethylenediaminetetracetic acid and 0.04% of Tween-20, the radioactivity on the glass filter was determined. Nonspecific binding was measured in the presence of 1 μM human MCH and the 50% inhibitory concentration (IC50) of the test compound to the specific binding to [^125I]MCH was determined. Table 1 indicates the results.

| IC50 | SMILES |
| --- | --- |
| 0.11 nM | CCO/N=C(\c1ccc(F)c(F)c1)c1ccc(CN2CCC(c3cn(C)c4cnccc34)CC2)cn1 [Example 3-33, (E)-(3,4-Difluorophenyl)(5-{[4-(1-methyl-1H-pyrrolo[2,3-c]pyridin-3-yl)piperidin-1-yl]methyl}pyridin-2-yl)methanone O-ethyloxime] |
| 6.7 nM | CS(=O)(=O)CO/N=C(\c1ccc(F)c(F)c1)c1ccc(CN2CCC(c3ccc(F)nc3)CC2)cn1 [Example 3-53, (E)-(3,4-Difluorophenyl)(5-{[4-(6-fluoropyridin-3-yl)piperidin-1-yl]methyl}pyridin-2-yl)methanone O-[(methylsulfonyl)methyl]oxime] |
| 11.2 nM | CC(C)(O)CO/N=C(\c1ccc(F)c(F)c1)c1ccc(CN2CCC(c3cnn4ncccc34)CC2)cn1 [Example 3-51, (E)-(3,4-Difluorophenyl){5-[(4-pyrazolo[1,5-b]pyridazin-3-ylpiperidin-1-yl)methyl]pyridin-2-yl}methanone O-(2-hydroxy-2-methylpropyl)oxime] |
| 9.7 nM | Fc1ccc(C2CCN(Cc3cnc(/C(=N/OC4CC4)c4ccc(F)c(F)c4)nc3)CC2)cn1 [Example 4-1, (E)-(3,4-difluorophenyl)(5-{[4-(6-fluoropyridin-3-yl)piperidin-1-yl]methyl}pyrimidin-2-yl)methanone-O-cyclopropyloxime] |
| 0.27 nM | CCO/N=C(\c1ccc(F)c(F)c1)c1ccc(CN2CCC(c3ccn4ccnc4c3)CC2)cn1 [Example 3-26, (E)-(3,4-Difluorophenyl){5-[(4-imidazo[1,2-a]pyridin-7-ylpiperidin-1-yl)methyl]pyridin-2-yl)methanone O-ethyloxime] |
